{"source": "patent US5162361A", "about": "“Method of treating diseases associated with elevated levels of interleukin 1” (priority 1990, dated 1992)", "key": {"tumor necrosis factor": {"tested_on": "tumor necrosis factor", "assay": "Tumor necrosis factor secretion by human macrophages", "type": "cell-based", "settings": "Macrophage, 10^-5 M, read-out: Suppression of tumor necrosis factor secretion", "text": "It has also been observed that pentamidine (10^-5 M) blocks the secretion of tumor necrosis factor in rat macrophages (42 units/ml - pentamidine vs. 82 units/ml - control), as well as tumor necrosis factor and IL-6 in human macrophages, where at a concentration of 10^-5 M pentamidine, tumor necrosis factor and IL-6 secretion are suppressed >50%. These additional cytokines are also very influential mediators in inflammatory diseases."}, "IL-1α mRNA": {"tested_on": "IL-1α mRNA", "assay": "Northern blot analysis of IL-1α mRNA expression", "type": "cell-based, rat", "settings": "10 μM pentamidine, LPS, 3 h, FIG. 2", "experimental": "Specific transcription of IL-1α mRNA synthesis was assessed by incubating cells with and without 10 μM pentamidine or 1 μM of the corticosteroid, dexamethasone in the presence or absence of lipopolysaccharide (LPS). At the end of a 3 hour incubation period, the cells were lysed and the total cellular RNA was collected, blotted onto a nitrocellulose filter and probed with ^32 P-labeled IL-1α cDNA. […] In contrast, mRNA for IL-1α was not seen in dexamethasone treated cells.\nFor determination of IL-1 mRNA levels, cells (4×10^6) were cultured with or without pentamidine (10 μM) or dexamethasone (1 μM) in media with 10% FCS in the presence or absence of LPS (1 μg/ml) for 3 hours. Total cellular RNA was isolated by quanidinium-thiocyanate phenolchloroform extraction (P. Chomczynski et al., Anal. Bioch. 162, 156 (1987)). RNA (10 μg) was electrophoresed in 1.2% agarose gels as previously described (H. Leharch et al., Biochemistry 4743 (1977)). […] Hybridizing species were detected by autoradiography at -70° C., using Kodak XAR film with an intensifying screen. The total RNA levels per lane on the gel was assessed by monitoring 28S and 18S, and expression of α-tubulin mRNA. Accumulation of α-tubulin mRNA was determined by probing the same blot with ^32 P labeled 30 mer oligonucleotide (Du Pont)."}, "Ia antigen": {"tested_on": "Ia antigen", "assay": "Ia antigen expression on alveolar macrophages (flow cytometry)", "type": "cell-based, rat", "experimental": "^a Ia antigen expression - Alveolar macrophages were diluted to 1×10^6 cells/ml in RPMI (supplemented as above). Three mls. (3×10^6 cells) were added to sterile teflon vials and treated with pentamidine or dexamethasone for 4 hours at 37° C., 5% CO2, followed by the addition of rat γ IFN at 100 U/ml. Cells were incubated for 18 hours, pelleted, counted and adjusted to 1×10^7 cells/ml in ice cold standard buffer (HBSS, 0.1% Na azide, 1% BSA).\nAliquots of cells (50 μl in quadruplicate) from the various treatment groups were plated to a 96 well round bottom plate (Linbro) and incubated for 45 minutes on ice with 50 μl aliquots of one of the following: monoclonal anti-rat OXS (Sera-lab), monoclonal anti-mouse OX6 (Sera-lab), both at 0.5 μg/5×10^5 cells, or HBSS (control). Cells were washed 3× with standard buffer and incubated for 45 minutes on ice, in the dark, with 50 μl of phycoerythrin-labeled goat anti-mouse IGGI (Fisher Biotech) at 1 μg/5×10^5 cells. Cells were washed 3× with standard buffer, resuspended in 0.4 ml of standard buffer and analyzed via flow cytometry."}, "IL-1": {"tested_on": "IL-1", "assay": "IL-1 release from alveolar macrophages (thymocyte co-stimulation bioassay)", "type": "cell-based, rat", "settings": "24 h after LPS (5 ng/ml), FIG. 1a", "experimental": "Pulmonary alveolar macrophages were collected by lavaging the lungs as previously described (D. B. Warheit et al., Am. Rev. Resp. Dis. 134, 128 (1986)). Once washed and resuspended, the macrophages were allowed to adhere to plastic plates in serum free RPMI 1640 containing 25 mM Hepes, 2 mM L-glutamine, 50 μg/ml gentamicin and streptomycin (media). Following adherence for 1 hour at 37° C. in 5% CO2, the plates were washed once with warm media to remove nonadherent cells, cells were resuspended in media with 10% FCS and treated with or without pentamidine at the indicated concentration and LPS (5 ng/ml) for 24 hours). IL-1 activity was assayed using a thymocyte co-stimulation assay (S. B. Mizel in Methods in Macrophage Biology, Editors, Herscowitz and Holden (1981)). Single cell thymocyte suspension from B6C3F1 mice (female, 5-9 weeks old) at a concentration of 2.0×10^7 /ml in media containing 10% FCS, and 2.5×10^-5 M 2-β mercaptoethanol were added in 50 μl aliquots to each well of flat bottom microtiter plates along with 50 μl of PHA at 2.5 μg/ml. Serial dilution of supernatants or cells were made in media with 10% FCS and added in 100 μl aliquots. IL-1 activity was measured by quantifying the uptake of 3Hthymidine during the last 6 hours of a 72 hour culture at 37° C. and 5% CO2. Cells were harvested onto glass fiber filters and filter associated radioactivity counted in a scintillation counter.\nIn vitro studies were performed by taking alveolar macrophages from normal healthy rat lungs and culturing them in the presence of an imidazoline with the inducer lipopolysaccharide for 24 hours. The standard bioassay for IL-1 was performed (see above)."}, "[1]": {"tested_on": "Pulmonary alveolar macrophages", "assay": "Phagocytosis by pulmonary alveolar macrophages (Fluoresbrite beads, flow cytometry)", "type": "cell-based, rat", "experimental": "One ml aliquots were added to sterile teflon vials (Nalgene) along with pentamidine or dexamethasone (Sigma) as indicated, and incubated for 4 hours at 37° C., 5% CO2. Fluoresbrite carboxylate beads, 1.73 μm (Polysciences) were used to achieve a 100:1 bead to cell ratio and the suspension was incubated for 45 minutes at 37° C., 5% CO2 with gentle agitation. Cell suspensions were then layered over 3 mls. of RPMI/FCS+0.3% BSA, and cells pelleted at 150 xg for 10 minutes. Supernates were discarded and cells resuspended in 1 ml of RPMI/FCS for analysis via flow cytometry. The data presented above is the mean of the percentage of cells taking up one or more beads of triplicate cultures."}}, "note": "Entries after “also recorded” stand apart in the source; their conditions may differ."}
{"compound": "N=C(N)c1ccc(OCCCCCOc2ccc(C(=N)N)cc2)cc1", "note": "[Pentamidine, 1,5-bis(4-amidinophenoxy)pentane]", "values": [{"measurement": "inhibition at 10 µM", "setting": "tumor necrosis factor", "result": "> 50", "unit": "%"}, {"measurement": "IL-1α mRNA expression", "setting": "IL-1α mRNA", "result": "lack of effect on mRNA expression; also recorded: equal amounts of L-1α mRNA"}, {"measurement": "Ia Antigen Expression (MFI)", "setting": "Ia antigen; Pentamidine 10^-5 M (control 459)", "result": 464, "unit": "MFI"}, {"measurement": "Mean concentration of Ia molecules on Ia positive cells", "setting": "Ia antigen; result in words", "result": "nor did it influence the mean concentration of Ia molecules on Ia positive cells"}, {"measurement": "IL-1 release", "setting": "IL-1", "result": "decreased in a concentration dependant manner; also recorded: decreased in a concentration dependent manner"}, {"measurement": "Phagocytic Index", "setting": "[1]; Pentamidine 10^-5 M (control 32)", "result": 32, "unit": "%"}, {"measurement": "Phagocytic capacity of alveolar macrophages", "setting": "[1]; result in words", "result": "did not modulate the phagocytic capacity of alveolar macrophages"}]}
